Reference: PubChem BioAssay AID1259407 (Chemical Carcinogenesis Research Information System (CCRIS), 2018)
Calls of active or inactive are those of the source. The rule behind the calls is not given here.

Test system: CCRIS mutagenicity, Ames/micronucleus/aberration tests
Assay: CCRIS mutagenicity studies

Measured: mutagenic call

CS(C)=O
inactive: Test System: AMES SALMONELLA TYPHIMURIUM, Strain/Indicator: TA1535, Metabolic Activation: RAT, LIVER, S-9, AROCLOR 1254 (10 OR 30%), Method: PREINCUBATION inactive; negative | Test System: AMES SALMONELLA TYPHIMURIUM, Strain/Indicator: TA1535, Metabolic Activation: RAT, LIVER, S-9, PHENOBARBITAL AND 5,6-BENZOFLAVONE, Method: PREINCUBATION (20 MIN) inactive; negative | Test System: AMES SALMONELLA TYPHIMURIUM, Strain/Indicator: TA1537, Metabolic Activation: HAMSTER, LIVER, S-9, AROCLOR 1254 (30%), Method: PREINCUBATION inactive; negative | Test System: AMES SALMONELLA TYPHIMURIUM, Strain/Indicator: TA1537, Metabolic Activation: NONE, Method: FLUCTUATION (MICROTITER) inactive; negative | Test System: AMES SALMONELLA TYPHIMURIUM, Strain/Indicator: TA1537, Metabolic Activation: NONE, Method: PREINCUBATION inactive; negative | Test System: AMES SALMONELLA TYPHIMURIUM, Strain/Indicator: TA1537, Metabolic Activation: NONE, Method: STANDARD PLATE inactive; negative | Test System: AMES SALMONELLA TYPHIMURIUM, Strain/Indicator: TA1537, Metabolic Activation: RAT LIVER S-9, AROCLOR 1254, Method: FLUCTUATION (MICROTITER) inactive; negative | Test System: AMES SALMONELLA TYPHIMURIUM, Strain/Indicator: TA1537, Metabolic Activation: RAT, LIVER, S-9, AROCLOR 1254 (30%), Method: PREINCUBATION inactive; negative | Test System: AMES SALMONELLA TYPHIMURIUM, Strain/Indicator: TA1538, Metabolic Activation: NONE, Method: PREINCUBATION (20 MIN) inactive; negative | Test System: AMES SALMONELLA TYPHIMURIUM, Strain/Indicator: TA1538, Metabolic Activation: RAT, LIVER, S-9, PHENOBARBITAL AND 5,6-BENZOFLAVONE, Method: PREINCUBATION (20 MIN) inactive; negative | Test System: AMES SALMONELLA TYPHIMURIUM, Strain/Indicator: TA7001, Metabolic Activation: NONE, Method: FLUCTUATION (MICROTITER) inactive; negative | Test System: AMES SALMONELLA TYPHIMURIUM, Strain/Indicator: TA7001, Metabolic Activation: RAT LIVER S-9, AROCLOR 1254, Method: FLUCTUATION (MICROTITER) inactive; negative | Test System: AMES SALMONELLA TYPHIMURIUM, Strain/Indicator: TA7002, Metabolic Activation: NONE, Method: FLUCTUATION (MICROTITER) inactive; negative | Test System: AMES SALMONELLA TYPHIMURIUM, Strain/Indicator: TA7002, Metabolic Activation: RAT LIVER S-9, AROCLOR 1254, Method: FLUCTUATION (MICROTITER) inactive; negative | Test System: AMES SALMONELLA TYPHIMURIUM, Strain/Indicator: TA7003, Metabolic Activation: NONE, Method: FLUCTUATION (MICROTITER) inactive; negative | Test System: AMES SALMONELLA TYPHIMURIUM, Strain/Indicator: TA7003, Metabolic Activation: RAT LIVER S-9, AROCLOR 1254, Method: FLUCTUATION (MICROTITER) inactive; negative | Test System: AMES SALMONELLA TYPHIMURIUM, Strain/Indicator: TA7004, Metabolic Activation: NONE, Method: FLUCTUATION (MICROTITER) inactive; negative | Test System: AMES SALMONELLA TYPHIMURIUM, Strain/Indicator: TA7004, Metabolic Activation: RAT LIVER S-9, AROCLOR 1254, Method: FLUCTUATION (MICROTITER) inactive; negative | Test System: AMES SALMONELLA TYPHIMURIUM, Strain/Indicator: TA7005, Metabolic Activation: NONE, Method: FLUCTUATION (MICROTITER) inactive; negative | Test System: AMES SALMONELLA TYPHIMURIUM, Strain/Indicator: TA7005, Metabolic Activation: RAT LIVER S-9, AROCLOR 1254, Method: FLUCTUATION (MICROTITER) inactive; negative | Test System: AMES SALMONELLA TYPHIMURIUM, Strain/Indicator: TA7006, Metabolic Activation: NONE, Method: FLUCTUATION (MICROTITER) inactive; negative | Test System: AMES SALMONELLA TYPHIMURIUM, Strain/Indicator: TA7006, Metabolic Activation: RAT LIVER S-9, AROCLOR 1254, Method: FLUCTUATION (MICROTITER) inactive; negative | Test System: E. COLI, Strain/Indicator: WP2, Metabolic Activation: NONE, Method: PREINCUBATION (20 OR 60 MIN) inactive; negative | Test System: E. COLI, Strain/Indicator: WP2, Metabolic Activation: NONE, Method: STANDARD PLATE inactive; negative | Test System: E. COLI, Strain/Indicator: WP2 UVRA, Metabolic Activation: NONE, Method: PREINCUBATION (60 MIN) inactive; negative
active: Test System: AMES SALMONELLA TYPHIMURIUM, Strain/Indicator: TA1537, Metabolic Activation: NONE, Method: PREINCUBATION (20 MIN) active; positive | Test System: AMES SALMONELLA TYPHIMURIUM, Strain/Indicator: TA1537, Metabolic Activation: NONE, Method: PREINCUBATION (20 OR 60 MIN) active; positive | Test System: AMES SALMONELLA TYPHIMURIUM, Strain/Indicator: TA1537, Metabolic Activation: RAT, LIVER, S-9, PHENOBARBITAL AND 5,6-BENZOFLAVONE, Method: PREINCUBATION (20 MIN) active; positive | Test System: AMES SALMONELLA TYPHIMURIUM, Strain/Indicator: TA2637, Metabolic Activation: NONE, Method: PREINCUBATION (20 MIN) active; positive | Test System: AMES SALMONELLA TYPHIMURIUM, Strain/Indicator: TA2637, Metabolic Activation: RAT, LIVER, S-9, PHENOBARBITAL AND 5,6-BENZOFLAVONE, Method: PREINCUBATION (20 MIN) active; positive | Test System: E. COLI, Strain/Indicator: WP2 UVRA, Metabolic Activation: NONE, Method: PREINCUBATION (20 MIN) active; positive | Test System: E. COLI, Strain/Indicator: WP2 UVRA, Metabolic Activation: NONE, Method: STANDARD PLATE active; positive | Test System: MOUSE LYMPHOMA, Strain/Indicator: L5178Y (TK+/TK-), Metabolic Activation: NONE, Method: SUSPENSION/PLATE active; positive
